“And” between values parts separate entries of the source, which are not always exact repeats. Equal entries are not always repeated.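 All cell lines were grown in 96-well plates and treated with compound for 48 hours. GI50 is the concentration that inhibits growth by half.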 The source made the active and inactive calls. Cut-off read from the data, not from the text of the source: active = GI50 up to about 1.1 µM and inactive = higher.
How the values were obtained:
Test in all cases: growth of human tumour cells (NCI), 48 h
[1] = test system: SF-295
[2] = test system: KM12
[3] = test system: HL-60
[4] = test system: M14
[5] = test system: SK-MEL-28
[6] = test system: A498
[7] = test system: NCI-H23
[8] = test system: SNB-75
[9] = test system: CCRF-CEM
[10] = test system: SF-268
[11] = test system: MCF7
[12] = test system: SNB-19
[13] = test system: UO-31
[14] = test system: NCI-H522
[15] = test system: UACC-257
[16] = test system: EKVX
[17] = test system: MDA-MB-435
[18] = test system: SN12C
[19] = test system: TK-10
[20] = test system: HCC 2998

Structure (SMILES) | GI50 [1] | GI50 [2] | GI50 [3] | GI50 [4] | GI50 [5] | GI50 [6] | GI50 [7] | GI50 [8] | GI50 [9] | GI50 [10] | GI50 [11] | GI50 [12] | GI50 [13] | GI50 [14] | GI50 [15] | GI50 [16] | GI50 [17] | GI50 [18] | GI50 [19] | GI50 [20]
Cc1ccc(/N=N/c2c(O)c3ccccc3[nH]c2=O)c(S(=O)(=O)N(C)C)c1 | > 100 µM (inactive) | > 100 µM (inactive) | > 100 µM (inactive) | > 100 µM (inactive) | > 100 µM (inactive) | > 100 µM (inactive) | > 100 µM (inactive) | > 100 µM (inactive) | > 100 µM (inactive) | > 100 µM (inactive) | > 100 µM (inactive) | > 100 µM (inactive) | > 100 µM (inactive) | > 100 µM (inactive) | > 100 µM (inactive) | > 100 µM (inactive) | > 100 µM (inactive) | > 100 µM (inactive) | > 100 µM (inactive) | 
O=C(O)C1(CC(CCCN2CCCCC2)c2ccccc2)CCCC1 (centres undefined) | > 100 µM (inactive) | > 100 µM (inactive) | > 100 µM (inactive) | > 100 µM (inactive) | > 100 µM (inactive) | > 100 µM (inactive) | > 100 µM (inactive) | > 100 µM (inactive) | > 100 µM (inactive) | > 100 µM (inactive) | > 100 µM (inactive) | > 100 µM (inactive) | > 100 µM (inactive) | > 100 µM (inactive) |  | > 100 µM (inactive) | > 100 µM (inactive) | > 100 µM (inactive) | > 100 µM (inactive) | > 100 µM (inactive)
CO[P@@]1(=O)O[C@@H](c2ccccc2)[C@H](O)[C@]1(O)c1ccccc1 | > 100 µM (inactive) | > 100 µM (inactive) | > 100 µM (inactive) | > 100 µM (inactive) | > 100 µM (inactive) | > 100 µM (inactive) | > 100 µM (inactive) | > 100 µM (inactive) | > 100 µM (inactive) | > 100 µM (inactive) | > 100 µM (inactive) | > 100 µM (inactive) | > 100 µM (inactive) | > 100 µM (inactive) | > 100 µM (inactive) | 24.9 µM (inactive) | > 100 µM (inactive) | > 100 µM (inactive) | > 100 µM (inactive) | 
CC[C@H](C)C1=C(O)[N@+]2([O-])Oc3ccc(-c4c(O)c(O)c(-c5ccc(O)cc5)c(OC(C)=O)c4OC(C)=O)cc3O[C@]2([C@@H](C)CC)C(=O)N1O | 24.8 µM (inactive) | 33.7 µM (inactive) | 17.7 µM (inactive) | 30.2 µM (inactive) | 46.8 µM (inactive) | 13.9 µM (inactive) | 47.3 µM (inactive) |  |  | 27.5 µM (inactive) | 18.7 µM (inactive) | 47.3 µM (inactive) | 33.8 µM (inactive) | 7.85 µM (inactive) | > 50 µM (inactive) | > 50 µM (inactive) | 28.1 µM (inactive) | 19.3 µM (inactive) | 24.3 µM (inactive) | 
CC(Oc1ccc(Cl)cc1Cl)C(=O)NN1C(=O)CSC1c1ccc(Cl)cc1 (centres undefined) | 50.6 µM (inactive) | 86.3 µM (inactive) | 35.3 µM (inactive) | 47.1 µM (inactive) | 67.3 µM (inactive) | 25.2 µM (inactive) | 79.8 µM (inactive) | 27.9 µM (inactive) |  | 88.7 µM (inactive) | 36.8 µM (inactive) | 30.4 µM (inactive) | > 100 µM (inactive) | 93.1 µM (inactive) | 48.2 µM (inactive) | 80 µM (inactive) | > 100 µM (inactive) | 20 µM (inactive) | 80.5 µM (inactive) | 54.8 µM (inactive)
Cc1ccc(C(C)C)c(OCC(=O)N/N=C/c2c[nH]c3ccc(Br)cc23)c1 | 2.45 µM (inactive) | 1.41 µM (inactive) | 2.37 µM (inactive) | 1.98 µM (inactive) | 8.93 µM (inactive) | 4.09 µM (inactive) | 0.451 µM (active) | 2.13 µM (inactive) | 2.11 µM (inactive) | 7.85 µM (inactive) | 0.45 µM (active) | 2.87 µM (inactive) | 3.49 µM (inactive) | 1.43 µM (inactive) | 2.87 µM (inactive) | 2.86 µM (inactive) | 0.904 µM (active) | 3.27 µM (inactive) | 2.4 µM (inactive) | 
CC1=C(C#N)C(=O)N(/N=C/c2ccc(Cl)cc2)C(=O)/C1=c1\o/c(=C2/C(=O)N(/N=C/c3ccc(Cl)cc3)C(=O)C(C#N)=C2C)c2nccnc12 | > 100 µM (inactive) | 47.1 µM (inactive) | 84.5 µM (inactive) | > 100 µM (inactive) | > 100 µM (inactive) | > 100 µM (inactive) | > 100 µM (inactive) | 15.3 µM (inactive) | 70.3 µM (inactive) | 47.3 µM (inactive) | 70.5 µM (inactive) | > 100 µM (inactive) | 85.7 µM (inactive) | > 100 µM (inactive) | > 100 µM (inactive) | > 100 µM (inactive) | > 100 µM (inactive) | > 100 µM (inactive) |  | 42.2 µM (inactive)
CN1CCN(Cc2nc3c(s2)CCc2sccc2-3)CC1 | 73.1 µM (inactive) | > 100 µM (inactive) |  | 28.4 µM (inactive) | 25.4 µM (inactive) | 12.7 µM (inactive) | > 100 µM (inactive) | 75.7 µM (inactive) | > 100 µM (inactive) | 82.6 µM (inactive) | 79.8 µM (inactive) | 74.8 µM (inactive) | 59.8 µM (inactive) | > 100 µM (inactive) | 79.3 µM (inactive) | > 100 µM (inactive) | 54.2 µM (inactive) | > 100 µM (inactive) | 92.7 µM (inactive) | 51.4 µM (inactive)
CC(=O)OC1COC(Nc2nc(NCc3ccccc3)n(C)c(=O)c2N=O)C(OC(C)=O)C1OC(C)=O (centres undefined) | > 10 µM (inactive) | > 10 µM (inactive) | > 10 µM (inactive) | > 10 µM (inactive) | > 10 µM (inactive) | > 10 µM (inactive) | > 10 µM (inactive) | > 10 µM (inactive) | > 10 µM (inactive) | > 10 µM (inactive) | > 10 µM (inactive) | > 10 µM (inactive) |  | > 10 µM (inactive) | > 10 µM (inactive) | > 10 µM (inactive) | > 10 µM (inactive) | > 10 µM (inactive) | > 10 µM (inactive) | > 10 µM (inactive)
CCOC(=O)c1cc2c3c(c(C(C)=O)c(O)c2[nH]1)N(CC(C)CC)CC3 (centres undefined) | 45 µM (inactive) | 56.4 µM (inactive) | 28.8 µM (inactive) |  | > 100 µM (inactive) | 80.9 µM (inactive) | 44.9 µM (inactive) | 30.7 µM (inactive) | 35.6 µM (inactive) | 35 µM (inactive) | > 100 µM (inactive) | 92 µM (inactive) | 83.4 µM (inactive) | 24.2 µM (inactive) | 68.7 µM (inactive) | 38.9 µM (inactive) | 44.3 µM (inactive) | > 100 µM (inactive) | > 100 µM (inactive) | 
CCC(=O)Nc1ccc(N2C(=O)/C(=C/c3ccc(O)c(OC)c3)N=C2c2ccccc2)cc1 | 19.9 µM (inactive) | 33.7 µM (inactive) | 24 µM (inactive) | 19.7 µM (inactive) | 25.6 µM (inactive) | 15.8 µM (inactive) | 43.8 µM (inactive) | > 100 µM (inactive) | 22.1 µM (inactive) | 27 µM (inactive) | 31.6 µM (inactive) | 22.5 µM (inactive) | 25.5 µM (inactive) | 37.6 µM (inactive) | 26.7 µM (inactive) | 17.8 µM (inactive) | 29.5 µM (inactive) | 54.5 µM (inactive) |  | 21 µM (inactive)
CC1(C)N=c2c(ncn2-c2ccccc2)=C(C(N)=O)N1 | > 100 µM (inactive) | > 100 µM (inactive) | > 100 µM (inactive) | > 100 µM (inactive) | > 100 µM (inactive) | > 100 µM (inactive) | > 100 µM (inactive) | > 100 µM (inactive) | > 100 µM (inactive) | > 100 µM (inactive) | > 100 µM (inactive) | > 100 µM (inactive) |  | > 100 µM (inactive) | > 100 µM (inactive) | > 100 µM (inactive) | > 100 µM (inactive) | > 100 µM (inactive) | > 100 µM (inactive) | > 100 µM (inactive)
CN1CCN2CCN(C)CCN(CC1)CC2 | > 100 µM (inactive) | > 100 µM (inactive) | > 100 µM (inactive) | > 100 µM (inactive) | > 100 µM (inactive) | > 100 µM (inactive) | > 100 µM (inactive) | > 100 µM (inactive) | > 100 µM (inactive) | > 100 µM (inactive) | > 100 µM (inactive) | > 100 µM (inactive) | > 100 µM (inactive) | > 100 µM (inactive) | > 100 µM (inactive) | > 100 µM (inactive) | > 100 µM (inactive) | > 100 µM (inactive) | > 100 µM (inactive) | 
CC1OC(OC2C(OC(=O)[C@]34CCC(C)(C)C[C@H]3C3=CC[C@@H]5[C@@]6(C)CC[C@H](OC7OC(C(=O)O)C(O)C(O)C7O)C(C)(C)[C@@H]6CC[C@@]5(C)[C@]3(C)CC4)OCC(O)C2O)C(O)C(O)C1OC1OCC(O)C(O)C1O (some centres undefined) |  |  | 21.8 µM (inactive) | 17.5 µM (inactive) and 19.2 µM (inactive) | 18.1 µM (inactive) and 24 µM (inactive) | 17.8 µM (inactive) and 18.6 µM (inactive) | 17.7 µM (inactive) and 19.6 µM (inactive) |  | 77.4 µM (inactive) | > 100 µM (inactive) and 53.2 µM (inactive) | 50.1 µM (inactive) and 41.5 µM (inactive) |  | 16.8 µM (inactive) and 22.1 µM (inactive) | 45.1 µM (inactive) and 45.5 µM (inactive) | 45 µM (inactive) and 29.8 µM (inactive) | 22.3 µM (inactive) and 30.1 µM (inactive) | 18.3 µM (inactive) and 18.9 µM (inactive) | 22.1 µM (inactive) and 19.4 µM (inactive) |  | 18.7 µM (inactive) and 19.2 µM (inactive)

From ChEMBL document CHEMBL1201862, “PubChem BioAssay data set” (2004)
